Data taken from article PMC4476799, “Englerin A Agonizes the TRPC4/C5 Cation Channels to Inhibit Tumor Cell Line Proliferation” (PLoS ONE, 2015).
Where two headings read alike, the source gives them in different places.

Test system: cancer cell lines from the cancer cell line encyclopedia (CCLE)
Experiment: Cell line profiling (CLiP) proliferation experiment
Type: cell-based
Conditions: Homo sapiens; for IC50: read-out: Crossing Point; for EC50: read-out: Inflection Point
Method: Compound profiling experiment and data analysis was performed as previously described. Data was imported and plotted using the Tibco Spotfire DXP application. Lines were categorized as sensitive, intermediate and refractory as follows: Amax<-40 & Inflection Point <2 ~ Sensitive, Amax>-20 & Inflection Point >10 ~ Refractory, all else were called Intermediate. Cancer Cell line HG-U133 Plus 2 data was processed and normalized as described. […] Five sets of refractory cell lines were generated from the pool of refractory cell lines trying to match the lineage composition of the set of sensitive cell lines. The limma package was used as previously described to perform the statistical comparison.

[1] = RS4-11, RS4;11 (haematopoietic_and_lymphoid_tissue)
[2] = RS4-11, cell line RS4;11, haematopoietic_and_lymphoid_tissue, acute_lymphoblastic_B_cell_leukaemia
[3] = RT-112, cell line RT-112, urinary_tract, transitional_cell_carcinoma
[4] = RVH-421, cell line RVH-421, skin
[5] = SCaBER, cell line SCaBER, urinary_tract, transitional_cell_carcinoma
[6] = SET-2, cell line Set-2, haematopoietic_and_lymphoid_tissue, essential_thrombocythaemia
[7] = SF-126, cell line SF126, central_nervous_system, astrocytoma
[8] = SHP77, cell line SHP-77, lung, small_cell_carcinoma
[9] = SJRH30, cell line SJRH30, soft_tissue
[10] = SK-CO-1, cell line SK-CO-1, large_intestine, adenocarcinoma
[11] = SK-ES1, cell line SK-ES-1, bone
[12] = SK-MEL-24, cell line SK-MEL-24, skin
[13] = SK-MES-1, cell line SK-MES-1, lung, squamous_cell_carcinoma
[14] = SK-N-SH, cell line SK-N-SH, autonomic_ganglia
[15] = SKM-1, cell line SKM-1, haematopoietic_and_lymphoid_tissue, acute_myeloid_leukaemia

CC(C)[C@@]12C[C@@H](O)[C@@](C)(O1)[C@@H]1CC[C@@H](C)[C@H]1[C@@H]2OC(=O)/C=C/c1ccccc1 [Englerin B]
20.4 µM: EC50 [11]
21.6 µM: IC50 [11]
19.8 µM: IC50 (SF-295, cell line SF-295, central_nervous_system, astrocytoma_Grade_IV)
11.1 µM: EC50 [12]
26.5 µM: IC50 [13]
28 µM: IC50 (SK-MEL-30, cell line SK-MEL-30, skin)
17.4 µM: IC50 [9]
15.5 µM: EC50 [9]
16.1 µM: EC50 (SJSA-1, SJSA-1 cells) | EC50 (SJSA-1, cell line SJSA-1, bone)
25 µM: EC50 (SK-MES-1, SK-MES-1 cells) | EC50 [13]
29.1 µM: IC50 (SJSA-1, cell line SJSA-1, bone)
11.6 µM: EC50 (RVH-421, RVH-421 cells) | EC50 [4] | EC50 (Rh41, RH-41 (soft_tissue)) | IC50 (Rh41, cell line RH-41) | EC50 (Rh41, cell line RH-41) | EC50 (SK-CO-1, SK-CO-1 (large_intestine)) | EC50 [10]
12.3 µM: EC50 (SF-126, SF126 cells) | EC50 [7]
18.4 µM: EC50 (Raji, Raji cells) | EC50 (Raji, cell line Raji) | IC50 (Rec1, REC-1 cells) | EC50 (Rec1, REC-1 cells) | IC50 (Rec1, cell line REC-1) | EC50 (Rec1, cell line REC-1)
19.6 µM: IC50 (SK-MEL-1, cell line SK-MEL-1, skin)
7.74 µM: EC50 [14]
> 30 µM: IC50 (RVH-421, RVH-421 cells) | IC50 [4] | IC50 (Rh18, RH-18 cells) | IC50 (Rh18, cell line RH-18) | IC50 (SCaBER, SCaBER (urinary_tract)) | IC50 [5] | IC50 (SHP77, SHP-77 cells) | IC50 [8] | IC50 (SK-BR-3, SK-BR-3 cells) | IC50 (SK-BR-3, cell line SK-BR-3, breast) | IC50 (SK-LMS-1, SK-LMS-1 cells) | IC50 (SK-LMS-1, cell line SK-LMS-1, soft_tissue) | IC50 (SK-LU-1, SK-LU-1 (lung)) | IC50 (SK-LU-1, cell line SK-LU-1, lung, adenocarcinoma) | IC50 (SK-MEL3, SK-MEL-3 cells) | IC50 (SK-MEL3, cell line SK-MEL-3, skin) | IC50 (SK-MEL-2, SK-MEL-2 (skin)) | IC50 (SK-MEL-2, SK-MEL-2, second row, PRIMARY_SITE (Empty)) | IC50 (SK-MEL-2, cell line SK-MEL-2, skin) | IC50 (SK-MEL-5, SK-MEL-5 (skin)) | IC50 (SK-MEL-5, cell line SK-MEL-5, skin) | IC50 (SK-MEL-24, SK-MEL-24 (skin)) | IC50 [12] | IC50 (SK-N-AS, SK-N-AS (autonomic_ganglia)) | IC50 (SK-N-AS, cell line SK-N-AS, autonomic_ganglia) | IC50 (SK-N-DZ, SK-N-DZ cells) | IC50 (SK-N-DZ, cell line SK-N-DZ, autonomic_ganglia) | IC50 (SK-N-FI, SK-N-FI (autonomic_ganglia)) | IC50 (SK-N-FI, cell line SK-N-FI, autonomic_ganglia) | IC50 (SK-N-SH, cell line SK-N-SH (autonomic_ganglia, NS)) | IC50 [14] | IC50 (SK-OV-3, SK-OV-3 (ovary)) | IC50 (SK-OV-3, cell line SK-OV-3, ovary, adenocarcinoma) | IC50 (SK-UT-1, SK-UT-1 (soft_tissue)) | IC50 (SK-UT-1, cell line SK-UT-1, soft_tissue) | IC50 (SKNBE2, cell line SK-N-BE(2), autonomic_ganglia) | IC50 (SKNBE2, cell line SK-N-BE(2)) | IC50 (SNB-19, SNB-19 cells) | IC50 (SNB-19, cell line SNB-19, central_nervous_system, astrocytoma_Grade_IV) | IC50 (SNU1, SNU-1 (stomach))
12.9 µM: EC50 (SCaBER, SCaBER (urinary_tract)) | EC50 [5]
12.1 µM: EC50 (SNU1, SNU-1 (stomach))
17.6 µM: IC50 (Raji, cell line Raji)
22.9 µM: EC50 (SET-2, Set-2 (haematopoietic_and_lymphoid_tissue)) | EC50 [6]
15.9 µM: IC50 [6]
24.5 µM: EC50 [15]
17.9 µM: IC50 [1] | EC50 [1] | IC50 [2] | EC50 [2]
17.8 µM: IC50 [10]
23.2 µM: IC50 [7]
14.5 µM: EC50 (SHP77, SHP-77 cells) | EC50 [8]
16.7 µM: IC50 (RT-112, RT-112 cells) | EC50 (RT-112, RT-112 cells) | IC50 [3] | EC50 [3]
21.1 µM: IC50 [15] | IC50 (SKM-1, cell line SKM-1)
